assay: HILIC, Merck SeQuant ZIC-HILIC, 25 °C, 0.25 mL/min; A: water + 16 mM ammonium formate; B: acetonitrile + 0.1% formic acid, pH 3; gradient (min/%B) 0/97 2/97 10/70 15/10 17/10 18/97 25/97; conditions: stereoisomer not certain

Row | SMILES | LC retention time [min]
1 | CCCCCCCCC=CCCCCCCCC(=O)OCC(O)COP(=O)([O-])OCC[N+](C)(C)C (stereo not drawn) [18-1_LysoPC] | 11.2
2 | CCCCCCCCCCCCCC(=O)OC(CO)COP(=O)(O)OCCN (stereo not drawn) [14-0_LysoPE] | 10.3
3 | NC(=O)NCCCC(N)C(=O)O (stereo not drawn) [CITRULLINE] | 14.5
4 | O=CC(O)C1OC(=O)C(O)C1O [D-GLUCURONOLACTONE] | 8.75
5 | [NH3+]CC(=O)N1CCCC1C(=O)[O-] (stereo not drawn) [Gly-Pro] | 15
6 | Nc1ccc(C(=O)O)cn1 [6-Aminopyridine-3-carboxylic acid] | 8.01
7 | CC(C)CC(O)C(=O)O (stereo not drawn) [2-Hydroxyisocaproic acid] | 1.91
8 | CC(=O)CC(=O)[O-] [ACETOACETATE] | 1.91
9 | NC(N)=NC(CC(=O)O)C(=O)O (stereo not drawn) [GUANIDINOSUCCINATE] | 14.4
10 | Nc1ccccc1O [2-AMINOPHENOL] | 2.11
11 | Nc1ncccc1C(=O)O [2-Aminopyridine-3-carboxylic acid] | 8.8
12 | NCCCN [1-3-DIAMINOPROPANE] | 17.6
13 | NC(=O)CC[C@H](N)C(=O)O [L-Glutamine] | 14.1
14 | O=C(O)C(=O)CO [HYDROXYPYRUVATE] | 13.3
15 | CCCCCCCCCCCCCCCC(=O)OCC(O)COP(=O)(O)O (stereo not drawn) [16:0_LysoPA] | 9.22
16 | O=CC[C@@H](O)[C@H](O)[C@H](O)CO [2-DEOXY-D-GLUCOSE] | 10.2
17 | CC12CCC(=O)C=C1CCC1C2CCC2(C)C1CCC2(O)C(=O)CO (stereo not drawn) [CORTEXOLONE] | 1.71
18 | Cc1cn(C2CC(O)C(COP(=O)(O)OP(=O)(O)OC3OC(CO)C(O)C(O)C3O)O2)c(=O)[nH]c1=O [DTDP-D-GLUCOSE] | 14.4
19 | Nc1nc2c(ncn2C2CC(O)C(COP(=O)(O)OP(=O)(O)OP(=O)(O)O)O2)c(=O)[nH]1 (stereo not drawn) [DGTP] | 15.7
20 | Cn1c(=O)[nH]c(=O)c2c1[nH]c(=O)n2C [3-7-Dimethyluric acid] | 2.24
21 | NCCS [CYSTEAMINE] | 16.9
22 | C[N+](C)(C)CCOP(=O)(O)OP(=O)([O-])OCC1OC(n2ccc(N)nc2=O)C(O)C1O (stereo not drawn) [CITICOLINE] | 15.7

Row | SMILES | LC retention time [min]
23 | N[C@H](C(=O)O)c1ccc(O)cc1 [4-HYDROXY-L-PHENYLGLYCINE] | 13.3
24 | O=C(O)CCCC(=O)O [GLUTARATE] | 2.13
25 | CCCC=O [BUTANAL] | 1.71
26 | O=C(O)c1ccc2ccccc2n1 [2-QUINOLINECARBOXYLATE] | 2.13
27 | O=C(O)CC(O)(CC(=O)O)C(=O)O [CITRATE] | 13
28 | O=C(O)CNC(=O)c1ccccc1 [HIPPURATE] | 2.12
29 | O=C(O)C(O)C(O)C(O)C(O)COP(=O)(O)O (stereo not drawn) [6-PHOSPHOGLUCONATE] | 15.1
30 | CCCCCCCCCCCCCC(=O)OCC(O)CO (stereo not drawn) [GLYCEROL-MYRISTATE] | 1.64
31 | O=C(O)C(O)C(O)C(O)C(O)CO (stereo not drawn) [GLUCONATE] | 13.6
32 | CC(CCCC(C)(C)O)C1CCC2C3CC=C4CC(O)CCC4(C)C3CCC12C (stereo not drawn) [25-HYDROXYCHOLESTEROL] | 1.6
33 | O=C(O)Cc1ccc(O)c(O)c1 [3-4-DIHYDROXYPHENYLACETATE] | 5.6
34 | CCOC(=O)CCNC(N)=O [ETHYL 3-UREIDOPROPIONATE] | 2.14
35 | CC(CCC(=O)O)C1CCC2C3C(O)CC4CC(O)CCC4(C)C3CCC12C (stereo not drawn) [CHENODEOXYCHOLATE] | 1.85
36 | NCCc1cnc[nH]1 [HISTAMINE] | 17
37 | NC1(C(=O)O)CCCCC1 [1-Aminocyclohexanecarboxylic acid] | 11.7
38 | O=C(O)CCCCCCCC(=O)O [AZELATE] | 1.84
39 | OCCc1c[nH]c2ccccc12 [INDOLE-3-ETHANOL] | 1.82
40 | Nc1ccccc1C(=O)O [ANTHRANILATE] | 1.84
41 | O=C(O)C(O)COP(=O)(O)O (stereo not drawn) [3-PHOSPHOGLYCERATE] | 18.1
42 | O=C(O)c1ccc(O)cc1O [2-4-Dihydroxybenzoic acid] | 2.18
43 | NC(CCSSCCC(N)C(=O)O)C(=O)O (stereo not drawn) [HOMOCYSTINE] | 15
44 | O=c1ccn(C2CC(O)C(COP(=O)(O)O)O2)c(=O)[nH]1 (stereo not drawn) [DEOXYURIDINE-MONOPHOSPHATE] | 13.4

Row | SMILES | LC retention time [min]
45 | O=C(O)c1ccc(=O)[nH]c1 [6-HYDROXYNICOTINATE] | 6.01
46 | Cn1c(=O)[nH]c2[nH]c(=O)[nH]c2c1=O [1-Methyluric acid] | 9.44
47 | Nc1ncnc2c1ncn2C1OC(COP(=O)(O)O)C(OP(=O)(O)O)C1O (stereo not drawn) [ADENOSINE 3'-5'-DIPHOSPHATE] | 14.9
48 | OCC1OCC(O)C(O)C1O [1-5-Anhydro-D-sorbitol] | 10.1
49 | O=S(=O)(O)c1ccc(O)c(O)c1 [3-4-dihydroxybenzenesulfonic acid] | 12.8
50 | CC1NCCc2cc(O)c(O)cc21 (stereo not drawn) [SALSOLINOL] | 11.1
51 | O=P(O)(O)OCC(O)CO (stereo not drawn) [GLYCEROL 3-PHOSPHATE] | 14.1
52 | Nc1nc2c(ncn2C2OC(COP(=O)(O)O)C(O)C2O)c(=O)[nH]1 (stereo not drawn) [GUANOSINE MONOPHOSPHATE] | 14.7
53 | CC(C)C(C(=O)O)C(O)C(=O)O (stereo not drawn) [3-isopropylmalic acid] | 2.19
54 | Cc1ccc(O)c(O)c1 [4-METHYLCATECHOL] | 1.84
55 | O=C(O)c1cc(O)cc(O)c1 [3-5-Dihydroxybenzoic acid] | 8.46
56 | O=P(O)(O)OC1OC(CO)C(O)C(O)C1O (stereo not drawn) [GALACTOSE 1-PHOSPHATE] | 14.7
57 | N[C@@H](Cc1cnc[nH]1)C(=O)O [L-Histidine] | 15.8
58 | NC(CSSCC(N)C(=O)O)C(=O)O (stereo not drawn) [CYSTINE] | 15.4
59 | CC(C)(CC(=O)O)CC(=O)O [3-3-Dimethylglutaric acid] | 2.11
60 | NC1CCSC1=O (stereo not drawn) [HOMOCYSTEINE THIOLACTONE] | 11.8
61 | NC1(C(=O)O)CC1 [1-AMINOCYCLOPROPANECARBOXYLATE] | 13.5
62 | O=C(O)Cc1cccc(O)c1 [3-HYDROXYPHENYLACETATE] | 2.15
63 | O=C(O)C(O)c1ccc(O)c(O)c1 (stereo not drawn) [3-4 DIHYDROXYMANDELATE] | 10.3
64 | CCCCCCCCC=CCCCCCCCC(=O)OCC(O)COP(=O)(O)O (stereo not drawn) [18-1_LysoPA] | 9.21

Continued, values first:

Row | LC retention time [min] | SMILES
65 | 2.75 | CC(O)C(=O)O (stereo not drawn) [LACTATE]
66 | 13.3 | NC(=O)C1CCCN1C(=O)C(Cc1cnc[nH]1)NC(=O)C1CCC(=O)N1 (stereo not drawn) [THYROTROPIN RELEASING HORMONE]
67 | 13.7 | C[C@@H](O)[C@H](N)C(=O)O [L-Threonine]
68 | 13.9 | CC(=O)NC1C(O)CC(O)(C(=O)O)OC1C(O)C(O)CO (stereo not drawn) [N-Acetylneuraminic acid]
69 | 1.69 | O=C(O)CCc1ccccc1 [hydrocinnamic acid]
70 | 2.08 | O=C([O-])C(O)c1ccccc1 (stereo not drawn) [MANDELATE]
71 | 13.2 | CC(=O)NC(CSSCC(NC(C)=O)C(=O)O)C(=O)O (stereo not drawn) [N-ACETYLCYSTEINE-dimere]
72 | 1.67 | COC(=O)Cc1ccc(O)cc1 [Methyl 4-hydroxyphenylacetate]
73 | 1.56 | CCCCCCCCCCCCCCCCCC(=O)O [STEARATE]
74 | 1.81 | O=C(O)c1ccccc1O [SALICYLATE]
75 | 1.55 | C=C1CCC(O)CC1=CC=C1CCCC2(C)C1CCC2C(C)C=CC(C)C(C)C (stereo not drawn) [VITAMIN D2]
76 | 1.94 | Cc1cc2nc3[nH]c(=O)[nH]c(=O)c3nc2cc1C [LUMICHROME]
77 | 14.6 | OCC1OC(OCC2OC(OC3(CO)OC(CO)C(O)C3O)C(O)C(O)C2O)C(O)C(O)C1O (stereo not drawn) [RAFFINOSE]
78 | 1.85 | OC1CCCCC1O (stereo not drawn) [TRANS-CYCLOHEXANEDIOL]
79 | 15.3 | Nc1ncnc2c1ncn2C1OC(COP(=O)(O)OP(=O)([O-])OCC2OC([n+]3cccc(C(=O)O)c3)C(O)C2O)C(O)C1OP(=O)(O)O (stereo not drawn) [NICOTINIC ACID ADENINE DINUCLEOTIDE PHOSPHATE]
80 | 9.37 | O=c1c(OC2OC(CO)C(O)C(O)C2O)c(-c2ccc(O)c(O)c2)oc2cc(O)cc(O)c12 [Quercetin-3-beta-D-glucoside]
81 | 14.7 | C=C(OP(=O)(O)O)C(=O)[O-] [PHOSPHOENOLPYRUVATE]

Row | LC retention time [min] | SMILES
82 | 16.5 | Cc1ncc(C[n+]2csc(CCOP(=O)([O-])OP(=O)(O)O)c2C)c(N)n1 [THIAMINE PYROPHOSPHATE]
83 | 1.71 | CC(=O)Oc1cccc(O)c1 [RESORCINOL MONOACETATE]
84 | 1.92 | COc1ccc2[nH]cc(CCNC(C)=O)c2c1 [MELATONIN]
85 | 2.14 | c1ccc2ncccc2c1 [QUINOLINE]
86 | 2.81 | O=C(O)c1cccnc1 [Nicotinic acid]
87 | 14.3 | Cc1ncc(C[n+]2csc(CCO)c2C)c(N)n1 [THIAMINE]
88 | 2.53 | NC(=O)C=CC(=O)O [MALEAMATE]
89 | 10.4 | O=c1[nH]c(=O)c2ncn(C3OC(CO)C(O)C3O)c2[nH]1 (stereo not drawn) [XANTHOSINE]
90 | 1.54 | c1ccc(CNc2ccccc2)cc1 [N-benzylaniline]
91 | 2.14 | O=C(O)CCCCCC(=O)O [pimelic acid]
92 | 2.24 | O=c1cc[nH]c(=O)[nH]1 [URACIL]
93 | 4.93 | CC(=O)NCC(=O)O [N-ACETYLGLYCINE]
94 | 13.9 | O=c1ccn(C2OC(COP(=O)(O)O)C(O)C2O)c(=O)[nH]1 (stereo not drawn) [URIDINE MONOPHOSPHATE]
95 | 1.9 | O=C(O)c1cccc[n+]1[O-] [Picolinic acid N-oxide]
96 | 8.96 | O=c1[nH]c(=O)c2[nH]cnc2[nH]1 [XANTHINE]
97 | 8.89 | O=C(O)CC(O)C(=O)O (stereo not drawn) [MALATE]
98 | 10.9 | O=C([O-])c1cc(=O)[nH]c(=O)[nH]1 [OROTATE]
